Measurements published in ChEMBL document CHEMBL1201862, “PubChem BioAssay data set” (2004).
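Compound exposure: 48 hours, 5 concentrations, 96-well plates. GI50 marks 50% less growth.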 Active and inactive are the calls of the source. No stated cut-off is given here; in the data, active = GI50 up to about 1.1 µM and inactive = higher.

What was measured:
Assay in all cases: growth of human tumour cells (NCI), 48 h
COLO 205 = tested on: COLO 205
HCC 2998 = tested on: HCC 2998
HCT-116 = tested on: HCT-116
HOP-62 = tested on: HOP-62
IGROV-1 = tested on: IGROV-1
K562 = tested on: K562
NCI-H23 = tested on: NCI-H23
NCI-H460 = tested on: NCI-H460
OVCAR-3 = tested on: OVCAR-3
OVCAR-4 = tested on: OVCAR-4
RPMI-8226 = tested on: RPMI-8226
SF-539 = tested on: SF-539
SK-MEL-5 = tested on: SK-MEL-5
SNB-75 = tested on: SNB-75
SR = tested on: SR
TK-10 = tested on: TK-10
UACC-257 = tested on: UACC-257
UO-31 = tested on: UO-31
OVCAR-5 = tested on: OVCAR-5

Measured: GI50

COC(=O)[C@H](Cc1ccccc1)NC(=O)/C(=C/C(C)C)NC(=O)[C@H](CCSC)NC=O
inactive: COLO 205 > 100 µM | HCC 2998 > 100 µM | HCT-116 > 100 µM | HOP-62 > 100 µM | IGROV-1 > 100 µM | K562 > 100 µM | NCI-H23 > 100 µM | NCI-H460 > 100 µM | OVCAR-3 > 100 µM | OVCAR-4 > 100 µM | RPMI-8226 > 100 µM | SF-539 > 100 µM | SK-MEL-5 > 100 µM | SNB-75 > 100 µM | SR > 100 µM | TK-10 > 100 µM | UACC-257 > 100 µM | UO-31 > 100 µM

O=C(CC(=O)c1ccccc1)CC(O)(c1ccccc1)c1ccccc1
inactive: COLO 205 10.5 µM | HCC 2998 10.6 µM | HCT-116 4.59 µM | HOP-62 3.34 µM | K562 2.47 µM | NCI-H23 3.37 µM | NCI-H460 2.33 µM | OVCAR-3 4.84 µM | OVCAR-4 3.13 µM | OVCAR-5 11.3 µM | RPMI-8226 4.05 µM | SK-MEL-5 3.52 µM | SNB-75 9.55 µM | SR 2.88 µM | TK-10 9.82 µM | UACC-257 13.2 µM | UO-31 5.7 µM

CCCCCC(=O)c1ccc2[nH]c3c(C)cc([N+](=O)[O-])c(C)c3c2c1
inactive: COLO 205 59.6 µM | HCC 2998 > 100 µM | HCT-116 90.8 µM | HOP-62 > 100 µM | K562 25.4 µM | NCI-H23 95.3 µM | NCI-H460 82 µM | OVCAR-3 67.6 µM | OVCAR-4 89.3 µM | OVCAR-5 > 100 µM | RPMI-8226 > 100 µM | SF-539 45.6 µM | SK-MEL-5 > 100 µM | SNB-75 > 100 µM | SR 56.8 µM | TK-10 26.6 µM | UACC-257 > 100 µM | UO-31 > 100 µM

O=c1cc[nH]c2c1ccc1ncccc12
inactive: COLO 205 > 100 µM | HCC 2998 > 100 µM | HCT-116 > 100 µM | HOP-62 > 100 µM | IGROV-1 > 100 µM | K562 > 100 µM | NCI-H23 > 100 µM | NCI-H460 > 100 µM | OVCAR-3 > 100 µM | OVCAR-4 > 100 µM | OVCAR-5 > 100 µM | SF-539 > 100 µM | SK-MEL-5 > 100 µM | SNB-75 > 100 µM | SR > 100 µM | TK-10 > 100 µM | UACC-257 > 100 µM | UO-31 > 100 µM

COc1cc(Cc2cc(OC)c(OC)c(OC)c2)ccc1O
inactive: COLO 205 77.8 µM | HCC 2998 27 µM | HCT-116 5.19 µM | HOP-62 26.8 µM | IGROV-1 > 100 µM | K562 3.61 µM | NCI-H23 11.2 µM | OVCAR-3 9.23 µM | OVCAR-4 82.2 µM | OVCAR-5 > 100 µM | RPMI-8226 8.39 µM | SF-539 9.31 µM | SK-MEL-5 3.85 µM | SNB-75 2.88 µM | SR 6.08 µM | TK-10 88.5 µM | UACC-257 22.4 µM | UO-31 52.6 µM

CCCCCCCSCC1OC(n2cnc3c(N)ncnc32)C(O)C1O (stereo not drawn)
inactive: COLO 205 14 µM | HCC 2998 20.9 µM | HCT-116 3.59 µM | IGROV-1 14.6 µM | K562 22.8 µM | NCI-H23 > 100 µM | NCI-H460 16.5 µM | OVCAR-4 21.8 µM | OVCAR-5 > 100 µM | RPMI-8226 12.6 µM | SF-539 32.7 µM | SK-MEL-5 16.2 µM | SNB-75 24 µM | SR 10 µM | TK-10 > 100 µM | UACC-257 18.3 µM

C/C(=N\NC(=S)Nc1ccc([N+](=O)[O-])cc1S(=O)(=O)O)c1ccccn1
inactive: COLO 205 36.5 µM | HCC 2998 30.9 µM | HCT-116 28.4 µM | HOP-62 76.9 µM | IGROV-1 73.1 µM | K562 41.1 µM | NCI-H23 69.3 µM | NCI-H460 25.7 µM | OVCAR-3 26.6 µM | OVCAR-4 36.8 µM | OVCAR-5 39.9 µM | RPMI-8226 40 µM | SF-539 46.3 µM | SK-MEL-5 57.8 µM | SNB-75 43 µM | SR 32.6 µM | TK-10 37.4 µM | UACC-257 > 100 µM | UO-31 45.6 µM

CC(C)Cc1cccc(C(C)C)c1NC(=O)CCC(=O)N/N=C1\C(=N/NC(=O)CCC(=O)Nc2c(C(C)C)cccc2C(C)C)C(c2ccc3c(c2)OCO3)Oc2ccccc21 (stereo not drawn)
inactive: COLO 205 > 100 µM | HCC 2998 > 100 µM | HCT-116 61.2 µM | HOP-62 71.9 µM | IGROV-1 29.5 µM | K562 25 µM | NCI-H23 > 100 µM | NCI-H460 27.9 µM | OVCAR-4 74.1 µM | OVCAR-5 > 100 µM | RPMI-8226 59.2 µM | SF-539 97.7 µM | SK-MEL-5 > 100 µM | SNB-75 49.2 µM | SR 55.7 µM | TK-10 > 100 µM | UACC-257 > 100 µM | UO-31 43.6 µM

CC(=O)C(CN(C)C)C(c1ccccc1)c1c(O)c2ccccc2oc1=O (stereo not drawn)
inactive: COLO 205 > 100 µM | HCC 2998 > 100 µM | HCT-116 > 100 µM | HOP-62 > 100 µM | IGROV-1 > 100 µM | K562 > 100 µM | NCI-H23 > 100 µM | NCI-H460 > 100 µM | OVCAR-3 > 100 µM | OVCAR-4 > 100 µM | OVCAR-5 > 100 µM | RPMI-8226 > 100 µM | SF-539 > 100 µM | SK-MEL-5 > 100 µM | SNB-75 14.3 µM | SR > 100 µM | TK-10 > 100 µM | UACC-257 > 100 µM

O=C(Cc1ccccc1)NN1C(=O)C(Cl)C1c1ccc(Cl)cc1 (stereo not drawn)
inactive: COLO 205 > 100 µM | HCC 2998 > 100 µM | HCT-116 > 100 µM | HOP-62 > 100 µM | IGROV-1 > 100 µM | K562 72.9 µM | NCI-H23 > 100 µM | NCI-H460 > 100 µM | OVCAR-3 > 100 µM | OVCAR-4 > 100 µM | OVCAR-5 > 100 µM | RPMI-8226 51.4 µM | SK-MEL-5 > 100 µM | SNB-75 84.5 µM | SR 24.1 µM | TK-10 > 100 µM | UACC-257 86.3 µM | UO-31 62.4 µM

CC#N.O[C@@H]1CCCC[C@@H]1O.O[C@@H]1CCCC[C@@H]1O.[TeH2]
inactive: COLO 205 84.3 µM | HCC 2998 > 100 µM | HCT-116 15.4 µM | HOP-62 41.7 µM | IGROV-1 26.9 µM | K562 18.7 µM | NCI-H23 21.2 µM | NCI-H460 3.72 µM | OVCAR-3 31.8 µM | OVCAR-4 31.8 µM | OVCAR-5 16.3 µM | RPMI-8226 37.2 µM | SF-539 > 100 µM | SK-MEL-5 40.6 µM | SNB-75 > 100 µM | SR 21.1 µM | TK-10 > 100 µM | UACC-257 54.3 µM | UO-31 57.1 µM

CC1=C/C(O)CC(=O)Cc2nc(co2)C(=O)N2CCC=C2C(=O)OC(C(C)C)C(C)/C=C\C(=O)NC/C=C\1 (stereo not drawn)
inactive: COLO 205 16.3 µM | HCC 2998 19.1 µM | HCT-116 14.5 µM | HOP-62 31.5 µM | IGROV-1 16.6 µM | K562 31 µM | NCI-H23 17.1 µM | NCI-H460 54 µM | OVCAR-3 19.8 µM | OVCAR-4 57.9 µM | OVCAR-5 18.8 µM | RPMI-8226 12.9 µM | SF-539 30.1 µM | SK-MEL-5 33.4 µM | SNB-75 11.3 µM | SR 15 µM | TK-10 31.6 µM | UACC-257 35.3 µM

CCOC(=O)/C=C/n1c2ccccc2c(=O)c2cc(OC)ccc21
inactive: COLO 205 > 100 µM | HCC 2998 > 100 µM | HCT-116 90.6 µM | HOP-62 > 100 µM | IGROV-1 > 100 µM | K562 > 100 µM | NCI-H23 57.1 µM | NCI-H460 > 100 µM | OVCAR-3 > 100 µM | OVCAR-4 > 100 µM | OVCAR-5 > 100 µM | SF-539 > 100 µM | SK-MEL-5 > 100 µM | SNB-75 51.5 µM | SR 28.2 µM | TK-10 74.5 µM | UACC-257 > 100 µM | UO-31 > 100 µM

S=C(N/N=C/c1ccccc1)NC12CC3CC(CC(C3)C1)C2
inactive: COLO 205 27 µM | HCT-116 29.5 µM | HOP-62 > 100 µM | IGROV-1 > 100 µM | K562 9.27 µM | NCI-H23 55.8 µM | NCI-H460 39.5 µM | OVCAR-3 27.2 µM | OVCAR-4 42.2 µM | OVCAR-5 63.7 µM | RPMI-8226 22 µM | SF-539 12.4 µM | SK-MEL-5 27.2 µM | SR 18.2 µM | TK-10 > 100 µM | UACC-257 26.1 µM | UO-31 > 100 µM

CC1S(=O)(=O)OCCOS1(=O)=O
inactive: COLO 205 > 100 µM | HCC 2998 > 100 µM | HCT-116 > 95.7 µM | HOP-62 > 100 µM | IGROV-1 > 100 µM | K562 > 100 µM | NCI-H23 > 76.9 µM | NCI-H460 31.7 µM | OVCAR-3 74 µM | OVCAR-4 > 100 µM | OVCAR-5 > 100 µM | RPMI-8226 > 100 µM | SF-539 46.6 µM | SK-MEL-5 50.1 µM | SNB-75 67.9 µM | TK-10 > 100 µM | UACC-257 > 94.2 µM | UO-31 > 100 µM
